Data on six compounds can be found in patent publication US20260337156A1, “SOLUBILIZING COMPOUNDS” (Vivesto AB, priority 2022, published 2026).

This data set in a line: particle size and polydispersity index of drug micelles over time (ZetaSizer). Format: physicochemical. As to conditions: for change of particle size and polydispersity index over time: 0-24 h. How it is done:
Micellar size was measured using a ZetaSizer from Malvern Panalytical.
A stock solution of docetaxel in methanol was mixed with a stock solution of compound 1 in a round bottom flask. The mixture was evaporated to dryness in a rotary evaporator. Final drying was performed in a desiccator to remove residual solvent. Hydration of the dried film was performed by adding water for injection (1.0 mL) to a concentration of 1 mg/mL of docetaxel. The resulting solution was filtered through a 0.22 μm sterile filter and further diluted with 0.9% sodium chloride solution to 0.5 mg/mL of docetaxel. […]
A stock solution of cyclosporin in methanol was mixed with a stock solution of compound 1 in a round bottom flask. The mixture was evaporated to dryness in a rotary evaporator. Final drying was performed in a desiccator to remove residual solvent. Hydration of the dried film was performed by adding water for injection (1.0 mL) to a concentration of 1 mg/mL of cyclosporin. The resulting solution was filtered through a 0.22 μm sterile filter and further diluted with 0.9% sodium chloride solution to 0.5 mg/mL of cyclosporin. The final weight ratio of cyclosporin to micelle forming agent was 1:3.
A stock solution of docetaxel in methanol was mixed with a stock solution of compound 3 in a round bottom flask. The mixture was evaporated to dryness in a rotary evaporator. Final drying was performed in a desiccator to remove residual solvent. Hydration of the dried film was performed by adding water for injection (1.0 mL) to a concentration of 1 mg/mL of docetaxel. The resulting solution was filtered through a 0.22 μm sterile filter and further diluted with 0.9% sodium chloride solution to 0.5 mg/mL of Docetaxel. The final weight ratio of docetaxel to micelle forming agent was 1:3.
A stock solution of cyclosporin in methanol was mixed with a stock solution of compound 3 in a round bottom flask. The mixture was evaporated to dryness in a rotary evaporator. Final drying was performed in a desiccator to remove residual solvent. Hydration of the dried film was performed by adding water for injection (1.0 mL) to a concentration of 1 mg/mL of cyclosporin. The resulting solution was filtered through a 0.22 μm sterile filter and further diluted with 0.9% sodium chloride solution to 0.5 mg/mL of cyclosporin. The final weight ratio of cyclosporin to micelle forming agent was 1:3.
A stock solution of docetaxel in methanol was mixed with a stock solution of compound 4 in a round bottom flask. The mixture was evaporated to dryness in a rotary evaporator. Final drying was performed in a desiccator to remove residual solvent. Hydration of the dried film was performed by adding water for injection (1.0 mL) to a concentration of 1 mg/mL of docetaxel. The resulting solution was filtered through a 0.22 μm sterile filter and further diluted with 0.9% sodium chloride solution to 0.5 mg/mL of docetaxel. […]
A stock solution of docetaxel in methanol was mixed with a stock solution of compound 5 in a round bottom flask. The mixture was evaporated to dryness in a rotary evaporator. Final drying was performed in a desiccator to remove residual solvent. Hydration of the dried film was performed by adding water for injection (1.0 mL) to a concentration of 1 mg/mL of docetaxel. The resulting solution was filtered through a 0.22 μm sterile filter and further diluted with 0.9% sodium chloride solution to 0.5 mg/mL of docetaxel. The final weight ratio of docetaxel to micelle forming agent was 1:3.
A stock solution of cabazitaxel in methanol was mixed with a stock solution of compound 5 in a round bottom flask. The mixture was evaporated to dryness in a rotary evaporator. Final drying was performed in a desiccator to remove residual solvent. Hydration of the dried film was performed by adding water for injection (1.0 mL) to a concentration of 1 mg/mL of cabazitaxel. […]

The mark [1] stands for this setting: cabazitaxel:compound 1:3, cabazitaxel 0.5 mg/mL, time 0 h.
The mark [2] stands for this setting: cabazitaxel:compound 1:3, cabazitaxel 0.5 mg/mL, time 1 h.
Setting [3] is: cabazitaxel:compound 1:3, cabazitaxel 0.5 mg/mL, time 2 h.
The mark [4] stands for this setting: cabazitaxel:compound 1:3, cabazitaxel 0.5 mg/mL, time 4 h.
The mark [5] stands for this setting: cabazitaxel:compound 1:3, cabazitaxel 0.5 mg/mL, time 6 h.
Setting [6] is: cabazitaxel:compound 1:3, cabazitaxel 0.5 mg/mL, time 24 h.
Setting [7] is: docetaxel:compound 1:3, docetaxel 0.5 mg/mL.
The mark [8] stands for this setting: docetaxel:compound 1:3, docetaxel 0.5 mg/mL, time 0 h.
Where [9] appears, read: docetaxel:compound 1:3, docetaxel 0.5 mg/mL, time 1 h.
The mark [10] stands for this setting: docetaxel:compound 1:3, docetaxel 0.5 mg/mL, time 2 h.
Where [11] appears, read: docetaxel:compound 1:3, docetaxel 0.5 mg/mL, time 4 h.
Where [12] appears, read: docetaxel:compound 1:3, docetaxel 0.5 mg/mL, time 6 h.
The mark [13] stands for this setting: docetaxel:compound 1:3, docetaxel 0.5 mg/mL, time 24 h.
Setting [14] is: docetaxel:compound 1:5, docetaxel 0.5 mg/mL, time 0 h.
Setting [15] is: docetaxel:compound 1:5, docetaxel 0.5 mg/mL, time 1 h.
Setting [16] is: docetaxel:compound 1:5, docetaxel 0.5 mg/mL, time 2 h.
Where [17] appears, read: docetaxel:compound 1:5, docetaxel 0.5 mg/mL, time 4 h.
Setting [18] is: docetaxel:compound 1:5, docetaxel 0.5 mg/mL, time 6 h.
[19] abbreviates: docetaxel:compound 1:5, docetaxel 0.5 mg/mL, time 24 h.

For the compound `COc1cc(C)c(/C=C/C(C)=C/C=C/C(C)=C/C(=O)N(CCS(=O)(=O)[O-])CC(N)=O)c(C)c1C.[Na+]` [Compound 5], the “change of particle size and polydispersity index over time” value (cabazitaxel:compound 1:3, cabazitaxel 0.5 mg/mL) is “Small variations in the particle size and the polydispersity index over time were noted”; the “change of particle size and polydispersity index over time” value under setting [7] is “An increase in the particle size and very small variations of the polydispersity index over time were noted”. This compound returned a Particle size under setting [1] of 93.83 nm; a Particle size under setting [2] of 98.08 nm; a Particle size under setting [3] of 102.2 nm; a Particle size under setting [4] of 106.6 nm; a Particle size under setting [5] of 108.8 nm; a Particle size under setting [6] of 83.42 nm. The same compound yielded a Particle size under setting [8] of 59.40 nm; a Particle size under setting [9] of 66.24 nm; a Particle size under setting [10] of 75.40 nm; a Particle size under setting [11] of 82.19 nm; a Particle size under setting [12] of 87.95 nm; a Particle size under setting [13] of 105.7 nm. For the same compound, the Polydispersity index runs as follows: under setting [1], 0.19; under setting [2], 0.20; under setting [3], 0.21; under setting [4], 0.20; under setting [5], 0.21; under setting [6], 0.39. This compound displayed a Polydispersity index under setting [8] of 0.17; a Polydispersity index under setting [9] of 0.16; a Polydispersity index under setting [10] of 0.14; a Polydispersity index under setting [11] of 0.13; a Polydispersity index under setting [12] of 0.13; a Polydispersity index under setting [13] of 0.14.
For the compound `COc1cc(C)c(/C=C/C(C)=C/C=C/C(C)=C/C(=O)N2CCN(c3ccc(S(=O)(=O)[O-])cc3)CC2)c(C)c1C.[Na+]` [Compound 6], the “change of particle size and polydispersity index over time” value under setting [7] was “Small variations in the particle size and the polydispersity index over time were noted”. Also, the Particle size runs as follows: under setting [8], 61.37 nm; under setting [9], 61.27 nm; under setting [10], 64.21 nm; under setting [11], 67.34 nm; under setting [12], 69.84 nm; under setting [13], 66.18 nm. For the same compound, the Polydispersity index was 0.22 under setting [8]; 0.28 under setting [9]; 0.28 under setting [10]; 0.28 under setting [11]; 0.28 under setting [12]; 0.38 under setting [13].
With `COc1cc(C)c(/C=C/C(C)=C/C=C/C(C)=C/C(=O)N(C)[C@H]2CC[C@H](CS(=O)(=O)[O-])CC2)c(C)c1C.[Na+]` [Compound 7], the “change of particle size and polydispersity index over time” value under setting [7] was “Small variations in the particle size and the polydispersity index over time were noted”. In addition, the Particle size is given as 100.8 nm under setting [8]; 97.60 nm under setting [9]; 97.60 nm under setting [10]; 96.90 nm under setting [11]; 99.12 nm under setting [12]; 96.76 nm under setting [13]. The Polydispersity index under setting [8] was found to be 0.23; the Polydispersity index under setting [9] is given as 0.24; the Polydispersity index under setting [10] was 0.24; the Polydispersity index under setting [11] worked out at 0.25; the Polydispersity index under setting [12] stood at 0.25; the Polydispersity index under setting [13] stood at 0.26.
Regarding `COc1cc(C)c(/C=C/C(C)=C/C=C/C(C)=C/C(=O)N2CCC(CCS(=O)(=O)[O-])CC2)c(C)c1C.[Na+]` [Compound 8], under setting [7], the “change of particle size and polydispersity index over time” value was “Increase in the particle size and small variations the polydispersity index over time were noted”. Moreover, the Particle size is given as 55.38 nm under setting [8]; 70.34 nm under setting [9]; 75.90 nm under setting [10]; 83.10 nm under setting [11]; 87.94 nm under setting [12]; 105.0 nm under setting [13]. The Polydispersity index runs as follows: under setting [8], 0.20; under setting [9], 0.15; under setting [10], 0.13; under setting [11], 0.11; under setting [12], 0.12; under setting [13], 0.16.
Consider `COc1cc(C)c(/C=C/C(C)=C/C=C/C(C)=C/C(=O)N2CCN(C(=O)c3ccc(S(=O)(=O)[O-])cc3)CC2)c(C)c1C.[K+]` [Compound 9], for which the “change of particle size and polydispersity index over time” value under setting [7] is “Increase in the particle size and small variations the polydispersity index over time were noted”. This compound also returned a Particle size under setting [8] of 89.91 nm; a Particle size under setting [9] of 97.93 nm; a Particle size under setting [10] of 103.8 nm; a Particle size under setting [11] of 113.0 nm; a Particle size under setting [12] of 118.6 nm; a Particle size under setting [13] of 122.0 nm. For the same compound, the Polydispersity index is, setting by setting: under setting [8], 0.20; under setting [9], 0.20; under setting [10], 0.20; under setting [11], 0.17; under setting [12], 0.17; under setting [13], 0.22.
Regarding `COc1cc(C)c(/C=C/C(C)=C/C=C/C(C)=C/C(=O)N(CCO)Cc2ccc(N)cc2S(=O)(=O)[O-])c(C)c1C.[Na+]` [Compound 10], the “change of particle size and polydispersity index over time” value (docetaxel:compound 1:5, docetaxel 0.5 mg/mL) was “Increase in the particle size and minor decrease the polydispersity index over time were noted”. Besides, the Particle size worked out at 52.29 nm under setting [14]; 62.51 nm under setting [15]; 70.07 nm under setting [16]; 78.98 nm under setting [17]; 85.10 nm under setting [18]; 107.4 nm under setting [19]. For the same compound, the Polydispersity index is, setting by setting: under setting [14], 0.16; under setting [15], 0.13; under setting [16], 0.12; under setting [17], 0.12; under setting [18], 0.10; under setting [19], 0.10.
